According to US10792268B2, “Methods of sustaining dietary ketosis and its effects on lipid profile” (priority 2014, dated 2020):
Marks after values point to notes of the source that are not given here.

Assays:
Type in all cases: in vivo, Sprague-Dawley rats
[1] = Change of body weight over 4 weeks of ketone supplementation; settings: rats, 5 g/kg gavage daily, weekly weighing over 4 weeks
Protocol: (§1) Adult male Sprague-Dawley rats (n=74), 275-325 grams, were obtained from Harlan, and randomly assigned to the following groups: control (water), R,S-1,3-butanediol (BD), or R,S-1,3-butanediol acetoacetate diester (KE). Rats were treated daily with 5 g/kg intragastric gavage of BD or KE for days 1-28. Animals were weighed once per week to maintain accurate dosage using the Mittler Toledo SB16001 scales. Gavage was given between 10 am-1 pm daily to eliminate variance based on regular eating patterns. Diets were not restricted for this study.
Animal weights were obtained weekly (Mittler Toledo SB16001 scales).

[2] = Blood glucose levels after intragastric gavage of ketone supplements; settings: rats; for blood glucose levels, overall over the 4 weeks: 5 g/kg gavage daily; for blood glucose levels, week 1: FIG. 4(B)
Protocol: as §1
(§2) Once a week, animals were fasted, with water still available for 4 hours prior to intragastric gavage to eliminate blood glucose and ketone variance of regular eating habits. Whole blood samples (10 μl) were acquired from the saphenous vein for analysis of glucose and βHB utilizing the commercially available glucose and ketone monitoring system Precision Xtra™ (Abbott Laboratories, Abbott Park, Ill.) at time 0, 0.5, 1, 4, 8, and 12 hours after test substance administration, or until βHB returned to baseline. On Day 0 (Week 0) and Day 28 (Week 4), whole blood samples (10 μL) were acquired for analysis of total cholesterol, HDL, and triglycerides for a lipid panel utilizing the commercially available home cholesterol analyzer Cardio Chek™ (Polymer Technology Systems, Inc., Indianapolis, Ind.) at time 0.

[3] = Harvested organ weights at week 4; settings: rats, versus control; for liver weight: week 4 harvested organs
Protocol: Animals treated from Example 1 were sacrificed by CO2 between 4-8 hours after gavage-treatment at the end of 4 weeks (28 days at the dose of 5-10 g/kg), which were determined to be peak ketone elevation. Brain, Lungs, Liver, Kidneys, Spleen and Heart were harvest and weighed using AWS-1000 1 kg portable digital scale (AWS, Charleston, S.C.). Organs were then either flash frozen in liquid nitrogen or preserved in paraformaldehyde for future analysis.

hepatocyte cell nuclei = assay: Liver histology (H&E stain) after 28 days of ketone supplementation; settings: for fat deposits in liver sections / hepatocyte nucleus number, maximum / hepatocyte nucleus number, minimum / number of RBCs and capillaries in liver sections compared to control / hepatocyte nucleus number, average: rats, 28 days gavage at maximum tolerable dose (5-10 g/kg); for number of RBCs and capillaries in liver sections compared to control: data not shown; for hepatocyte nucleus number, average: minimum 5 images/animal, 5 animals/group; for hepatocyte nucleus number, significance (p, unpaired t-test versus control): significant if p < 0.05
Protocol: Livers from rats administered maximum tolerable dose of ketone supplementation were assessed via histology. The livers from rats treated 4-weeks with ketone supplementation appeared normal in color, size and texture in all groups upon harvesting. The livers were sectioned for histology and stained with Hematoxylin and Eosin (H&E stain), and analyzed by a trained pathologist to assess histopathological changes, including changes in liver cytoarchitecture, presence of steatosis, steatofibrosis, cell nuclei density, capillary density, presence of red blood cells (RBCs) and signs of inflammatory processes (e.g. macrophages).
The representative images are liver sections of Sprague-Dawley that were gavaged daily with water; 1,3-butanediol (BD); Ketone Ester (KE);) for 28 days at the maximum tolerable dose (5-10 g/kg). […] It should be noted that 1,3-butanediol has alcohol-like properties and requires hepatocytes to enzymatically metabolize the di-alcohol through cytosolic alcohol dehydrogenase and the induction of cytochrome p450 enzymes for conversion to βHB. The processes are associated with an increase in liver metabolism and blood flow, possibly resulting in greater number of RBCs and capillaries. There was also a modest, but statistically significant increase in hepatocyte cell nuclei, seen in Table 2, although no indications of liver damage, inflammation, fibrosis or presence of Mallory-Denk bodies were observed.

[4] = Blood ketone (βHB) levels after intragastric gavage of ketone supplements; settings: rats; for duration of elevated blood ketones (starting at 30 min): 5 g/kg for all four weeks
Protocol: as §1, §2

[5] = Lipid panel (total cholesterol, HDL, triglycerides) at week 0 and week 4; settings: rats, after 4-week chronic dosage, 5 g/kg
Protocol: as §1, §2

[6] = Global metabolic profiling of serum and hippocampus (GC/MS and LC/MS/MS) after 28-day treatment; settings: rats
Protocol: Rats were treated as described in Example 1, and brain and serum samples were extracted and prepared for analysis using a standard solvent extraction method (Metabolon Inc., Durham, N.C.) at 28 days after initiation of treatment. The extracted samples were split into equal parts for analysis on the GC/MS and LC/MS/MS platforms. Instrument variability was determined by calculating the median relative standard deviation (RSD) for the internal standards that were added to each sample prior to injection into the mass spectrometers.
A total of 388 and 290 compounds were identified in serum and hippocampus samples, respectively. […] The less robust changes in the hippocampal tissue may have been due to the time frame needed to dissect the hippocampal tissue from the brain prior to flash freezing (2-4 minutes). Random Forest (RF) is a supervised classification technique reporting on the consensus of a large number of decision trees. In this study, the serum and hippocampus profiles of animals subjected to different dietary treatments were classified in order to: 1) assess the capacity to distinguish between dietary treatment on the basis of global metabolic profiles and 2) identify biochemicals important to the classification. A classification accuracy of 33% is expected by random chance when comparing three groups. For this study, classification of serum and hippocampus samples was 100% and 83% accurate, respectively, in correctly categorizing samples into their proper groups. […] In serum, the biochemical key to classifying the groups included biomarkers related to ketones, energy metabolites, medium-chain fatty acids, and ketones were key factors for hippocampal group classification.

[7] = 5 g/kg gavage, FIG. 3 (text: week 6; legend: week 4)

Structure (SMILES)	body weight increase versus control [1]	blood glucose levels, overall over the 4 weeks [2]	blood glucose levels, week 1 ([2]; 5 g/kg gavage)	liver weight [3]	fat deposits in liver sections (hepatocyte cell nuclei)	hepatocyte nucleus number, maximum (hepatocyte cell nuclei)	hepatocyte nucleus number, minimum (hepatocyte cell nuclei)	number of RBCs and capillaries in liver sections compared to control (hepatocyte cell nuclei)	hepatocyte nucleus number, average (hepatocyte cell nuclei)	hepatocyte nucleus number, significance (p, unpaired t-test versus control) (hepatocyte cell nuclei)	duration of elevated blood ketones (starting at 30 min) [4] [h]	Triglyceride levels at week 4 [5]	other results
C[C@H](O)CCO [BD, R,S-1,3-butanediol]	modestly decreased body weight increases	did not appear to drastically affect glucose levels	non-significant reduction	not a significant change in liver weight	the most prevalence of fat deposition	120	70	trend for greater number of RBCs and capillaries	93.56	0.585	8	mildly elevated	non-liver organ weight ([3]; week 4 harvested organs (brain, lungs, kidneys, spleen, heart)): no significant change in non-liver organ weight; fat deposits in liver sections (hepatocyte cell nuclei; listed as BE): evident; ketone bodies, peak at 4 hours ([4]; 5 g/kg gavage, FIG. 1(A), week 0): 1.0 mM/L; ketone bodies, initial peak at 30 minutes [4, 7]: around 0.8 mM/L; ketone bodies, second peak at 8 hours [4, 7]: around 0.8 mM/L; time of ketone body peak after treatment ([4]; 5 g/kg intragastric gavage daily, overall trend): 30 min
CC(=O)CC(=O)OCCC(C)OC(=O)CC(C)=O (centres unmarked) [KE, R,S-1,3-butanediol acetoacetate diester]	further reduced weight gains compared to BD treatment	reductions in glucose levels began at 30 minutes after treatment through 4 hours	continued the trend	statistically significant reduction in liver weight	evident	141	83	trend for greater number of RBCs and capillaries	107.80^a	0.002	8	little change	blood glucose levels, week 0 ([2]; 5 g/kg gavage, FIG. 4(A)): reduction in glucose levels by 1 hour after treatment; blood glucose levels, week 2 ([2]; 5 g/kg gavage, FIG. 5(A)): enhanced reduction in glucose; blood glucose levels, week 3 ([2]; 5 g/kg gavage, FIG. 5(B)): moderate reductions at 4 hours after treatment; blood glucose levels, week 4 ([2]; 5 g/kg gavage, FIG. 6): reduced glucose levels through 4 hours after treatment; alpha-ketoglutarate, metabolite ratio relative to a standard diet (SD) alone ([6]; 5 g/kg, 28 days, blood serum): 1.98^a; citrate, metabolite ratio relative to a standard diet (SD) alone ([6]; 5 g/kg, 28 days, blood serum): 1.99^a; fumarate, metabolite ratio relative to a standard diet (SD) alone ([6]; 5 g/kg, 28 days, blood serum): 1.92^a; malate, metabolite ratio relative to a standard diet (SD) alone ([6]; 5 g/kg, 28 days, blood serum): 2.03^a; succinate, metabolite ratio relative to a standard diet (SD) alone ([6]; 5 g/kg, 28 days, blood serum): 1.25; brain ketone levels, elevation with respect to controls ([6]; 28-day treatment, hippocampus, FIG. 16): > 2 fold; serum ketone levels, elevation with respect to controls ([6]; 28-day treatment, serum, FIG. 15): > 15 fold
